{"source": "patent US20170347651A1", "about": "“ACTIVE COMPOUND COMBINATIONS COMPRISING A (THIO)CARBOXAMIDE DERIVATIVE AND FUNGICIDAL COMPOUND(S)” (Bayer CropScience Aktiengesellschaft, priority 2014, published 2017)", "key": {"Leptosphaeria nodorum": {"tested_on": "Leptosphaeria nodorum", "assay": "in vivo preventive Leptosphaeria nodorum test (wheat)", "settings": "8 days after inoculation", "procedure": "(§1) To produce a suitable preparation of active compound, 1 part by weight of active compound or active compound combination is mixed with the stated amounts of solvent and emulsifier, and the concentrate is diluted with water to the desired concentration.\n(§2) To test for preventive activity, young plants are sprayed with the preparation of active compound or active compound combination at the stated rate of application. After the spray coating has been dried, the plants are sprayed with a spore suspension of Leptosphaeria nodorum. The plants remain for 48 hours in an incubation cabinet at approximately 20° C. and a relative atmospheric humidity of approximately 100%. The plants are placed in the greenhouse at a temperature of approximately 25° C. and a relative atmospheric humidity of approximately 80%.\n(§3) The test is evaluated 8 days after the inoculation. 0% means an efficacy which corresponds to that of the untreated control, while an efficacy of 100% means that no disease is observed."}, "Puccinia triticina": {"tested_on": "Puccinia triticina", "assay": "in vivo preventive Puccinia triticina test (wheat)", "settings": "8 days after inoculation", "procedure": "as §1\nas §2, with “Puccinia triticina.” for “Leptosphaeria nodorum.”, “20°” for “25°”\nas §3"}, "Septoria tritici": {"tested_on": "Septoria tritici", "assay": "in vivo preventive Septoria tritici test (wheat)", "settings": "21 days after inoculation", "procedure": "as §1\nTo test for preventive activity, young plants are sprayed with the preparation of active compound or active compound combination at the stated rate of application.\nAfter the spray coating has been dried, the plants are sprayed with a spore suspension of Septoria tritici.\nThe plants remain for 48 hours in an incubation cabinet at approximately 20° C. and a relative atmospheric humidity of approximately 100% and afterwards for 60 hours at approximately 15° C. in a translucent incubation cabinet at a relative atmospheric humidity of approximately 100%.\nThe plants are placed in the greenhouse at a temperature of approximately 15° C. and a relative atmospheric humidity of approximately 80%.\nThe test is evaluated 21 days after the inoculation. 0% means an efficacy which corresponds to that of the untreated control, while an efficacy of 100% means that no disease is observed."}, "Pyrenophora teres": {"tested_on": "Pyrenophora teres", "assay": "in vivo preventive Pyrenophora teres test (barley)", "settings": "8 days after inoculation", "procedure": "as §1\nas §2, with “Pyrenophora teres.” for “Leptosphaeria nodorum.”, “20°” for “25°”\nas §3"}}}
{"smiles": "CC(C)c1ccc(Cl)cc1CN(C(=O)c1c(C(F)F)nn(C)c1F)C1CC1", "note": "[A5, N-(5-chloro-2-isopropylbenzyl)-N-cyclopropyl-3-(difluoromethyl)-5-fluoro-1-methyl-1H-pyrazole-4-carboxamide]", "values": [{"measurement": "Efficacy in % found", "setting": "Leptosphaeria nodorum; 6.25 ppm a.i.", "result": 17, "unit": "%"}, {"measurement": "Efficacy in % found", "setting": "Leptosphaeria nodorum; 12.5 ppm a.i.", "result": 33, "unit": "%"}, {"measurement": "Efficacy in % found", "setting": "Puccinia triticina; 7.5 ppm a.i.", "result": 30, "unit": "%"}, {"measurement": "Efficacy in % found", "setting": "Puccinia triticina; 15 ppm a.i.", "result": 50, "unit": "%"}, {"measurement": "Efficacy in % found", "setting": "Puccinia triticina; 30 ppm a.i.", "result": 70, "unit": "%"}, {"measurement": "Efficacy in % found", "setting": "Septoria tritici; Table A1, wheat, 20 ppm a.i.", "result": 10, "unit": "%"}, {"measurement": "Efficacy in % found", "setting": "Septoria tritici; Table A2, wheat, 15 ppm a.i.", "result": 30, "unit": "%"}, {"measurement": "Efficacy in % found", "setting": "Septoria tritici; Table A2, wheat, 30 ppm a.i.", "result": 50, "unit": "%"}, {"measurement": "Efficacy in % found", "setting": "Pyrenophora teres; 25 ppm a.i.", "result": 71, "unit": "%"}]}
{"smiles": "O=C(NCCc1ncc(C(F)(F)F)cc1Cl)c1ccccc1C(F)(F)F", "note": "[fluopyram]", "values": [{"measurement": "Efficacy in % found", "setting": "Leptosphaeria nodorum; 9.375 ppm a.i.", "result": 0, "unit": "%"}, {"measurement": "Efficacy in % found", "setting": "Puccinia triticina; 45 ppm a.i.", "result": 0, "unit": "%"}, {"measurement": "Efficacy in % found", "setting": "Septoria tritici; Table A2, wheat, 45 ppm a.i.", "result": 40, "unit": "%"}, {"measurement": "Efficacy in % found", "setting": "Pyrenophora teres; 37.5 ppm a.i.", "result": 43, "unit": "%"}]}
{"smiles": "OC(Cc1ccccc1Cl)(Cn1nc[nH]c1=S)C1(Cl)CC1", "note": "(stereo not drawn) [prothioconazole]", "values": [{"measurement": "Efficacy in % found", "setting": "Leptosphaeria nodorum; 18.75 ppm a.i.", "result": 0, "unit": "%"}, {"measurement": "Efficacy in % found", "setting": "Leptosphaeria nodorum; 25 ppm a.i.", "result": 0, "unit": "%"}, {"measurement": "Efficacy in % found", "setting": "Puccinia triticina; 30 ppm a.i.", "result": 0, "unit": "%"}, {"measurement": "Efficacy in % found", "setting": "Puccinia triticina; 90 ppm a.i.", "result": 20, "unit": "%"}, {"measurement": "Efficacy in % found", "setting": "Septoria tritici; Table A1, wheat, 200 ppm a.i.", "result": 30, "unit": "%"}, {"measurement": "Efficacy in % found", "setting": "Septoria tritici; Table A2, wheat, 60 ppm a.i.", "result": 40, "unit": "%"}, {"measurement": "Efficacy in % found", "setting": "Septoria tritici; Table A2, wheat, 90 ppm a.i.", "result": 20, "unit": "%"}, {"measurement": "Efficacy in % found", "setting": "Pyrenophora teres; 50 ppm a.i.", "result": 0, "unit": "%"}, {"measurement": "Efficacy in % found", "setting": "Pyrenophora teres; 75 ppm a.i.", "result": 0, "unit": "%"}]}
{"smiles": "CC(C)(C)C(O)(CCc1ccc(Cl)cc1)Cn1cncn1", "note": "(stereo not drawn) [tebuconazole]", "values": [{"measurement": "Efficacy in % found", "setting": "Leptosphaeria nodorum; 25 ppm a.i.", "result": 0, "unit": "%"}, {"measurement": "Efficacy in % found", "setting": "Puccinia triticina; 30 ppm a.i.", "result": 30, "unit": "%"}, {"measurement": "Efficacy in % found", "setting": "Septoria tritici; Table A2, wheat, 60 ppm a.i.", "result": 20, "unit": "%"}, {"measurement": "Efficacy in % found", "setting": "Pyrenophora teres; 50 ppm a.i.", "result": 0, "unit": "%"}]}
{"smiles": "CON=C(C(=O)OC)c1ccccc1CON=C(C)c1cccc(C(F)(F)F)c1", "note": "[trifloxystrobin]", "values": [{"measurement": "Efficacy in % found", "setting": "Septoria tritici; Table A1, wheat, 20 ppm a.i.", "result": 30, "unit": "%"}]}
